Measured values reported in US20250282799A1, “SUBSTITUTED PYRIDO[4,3-d]PYRIMIDINES AS KRAS MODULATORS” (Alterome Therapeutics, Inc., priority 2023, published 2025).

Tested on: KRAS G12V dependent lung adenocarcinoma cell line, NCI-H441
Experiment: Cellular pERK (Thr202/Tyr204) FRET/HTRF assay
Type: cell-based
Details: Homo sapiens, NCI-H441, pERK HTRF, NCI-H441 cells (KRAS G12V)
Outline: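 Read-out is a wash-free FRET sandwich immunoassay for endogenous ERK1/2 phosphorylated on Thr202/Tyr204. Signal was measured in NCI-H441 lung adenocarcinoma cells after 1 hr compound exposure at 37 °C. IC50 values come from fitted concentration-response curves.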

SMILES	IC50
[2H]C([2H])(Oc1nc(N2CCCO[C@@H]3[C@@H](F)[C@@H]32)c2cnc(-c3cc(N)cc4cc(F)c(F)c(C#C)c34)c(F)c2n1)[C@@]12CCCN1C[C@H](F)C2 [Example 23, 5-Ethynyl-6,7-difluoro-4-(8-fluoro-4-((1S,7R,8S)-8-fluoro-2-oxa-6-azabicyclo[5.1.0]octan-6-yl)-2-(((2R,7aS)-2-fluorotetrahydro-1H-pyrrolizin-7a(5H)-yl)methoxy-d2)pyrido[4,3-d]pyrimidin-7-yl)naphthalen-2-amine]	500 to 10000 nM
[2H]C1([2H])CCO[C@H]2C[C@H]2N1c1nc(OC([2H])([2H])[C@@]23CCCN2C[C@H](F)C3)nc2c(F)c(-c3cc(N)cc4cc(F)c(F)c(C#C)c34)ncc12 [Example 25, 4-(4-((1S,7R)-2-Oxa-6-azabicyclo[5.1.0]octan-6-yl-5,5-d2)-8-fluoro-2-(((2R,7aS)-2-fluorotetrahydro-1H-pyrrolizin-7a(5H)-yl)methoxy-d2)pyrido[4,3-d]pyrimidin-7-yl)-5-ethynyl-6,7-difluoronaphthalen-2-amine]	< 50 nM
[2H]C1([2H])CCO[C@@H]2C[C@@H]2N1c1nc(OC([2H])([2H])[C@@]23CCCN2C[C@H](F)C3)nc2c(F)c(-c3cc(N)cc4cc(F)c(F)c(C#C)c34)ncc12 [Example 26, 4-(4-((1R,7S)-2-Oxa-6-azabicyclo[5.1.0]octan-6-yl-5,5-d2)-8-fluoro-2-(((2R,7aS)-2-fluorotetrahydro-1H-pyrrolizin-7a(5H)-yl)methoxy-d2)pyrido[4,3-d]pyrimidin-7-yl)-5-ethynyl-6,7-difluoronaphthalen-2-amine]	50 to 500 nM
[2H]C([2H])(Oc1nc(N2CCOC[C@@H]3[C@@H](F)[C@@H]32)c2cnc(-c3cc(N)cc4cc(F)c(F)c(C#C)c34)c(F)c2n1)[C@@]12CCCN1C[C@H](F)C2 [Example 27, 5-Ethynyl-6,7-difluoro-4-(8-fluoro-4-((1R,7R,8R)-8-fluoro-5-oxa-2-azabicyclo[5.1.0]octan-2-yl)-2-(((2R,7aS)-2-fluorotetrahydro-1H-pyrrolizin-7a(5H)-yl)methoxy-d2)pyrido[4,3-d]pyrimidin-7-yl)naphthalen-2-amine]	50 to 500 nM
[2H]C([2H])(Oc1nc(N2CCOC[C@@H]3[C@H](F)[C@@H]32)c2cnc(-c3cc(N)cc4cc(F)c(F)c(C#C)c34)c(F)c2n1)[C@@]12CCCN1C[C@H](F)C2 [Example 29, 5-Ethynyl-6,7-difluoro-4-(8-fluoro-4-((1R,7R,8S)-8-fluoro-5-oxa-2-azabicyclo[5.1.0]octan-2-yl)-2-(((2R,7aS)-2-fluorotetrahydro-1H-pyrrolizin-7a(5H)-yl)methoxy-d2)pyrido[4,3-d]pyrimidin-7-yl)naphthalen-2-amine]	50 to 500 nM
[2H]C([2H])(Oc1nc(N2CCOC[C@H]3[C@@H](F)[C@H]32)c2cnc(-c3cc(N)cc4cc(F)c(F)c(C#C)c34)c(F)c2n1)[C@@]12CCCN1C[C@H](F)C2 [Example 30, 5-Ethynyl-6,7-difluoro-4-(8-fluoro-4-((1S,7S,8R)-8-fluoro-5-oxa-2-azabicyclo[5.1.0]octan-2-yl)-2-(((2R,7aS)-2-fluorotetrahydro-1H-pyrrolizin-7a(5H)-yl)methoxy-d2)pyrido[4,3-d]pyrimidin-7-yl)naphthalen-2-amine]	< 50 nM
[2H]C([2H])(Oc1nc(N2CCO[C@@H]3C[C@@H]32)c2cnc(-c3cc(N)cc4cc(F)c(F)c(C#C)c34)c(F)c2n1)[C@@]12CCCN1C[C@H](F)C2 [Example 31, 4-(4-((1R,6S)-2-Oxa-5-azabicyclo[4.1.0]heptan-5-yl)-8-fluoro-2-(((2R,7aS)-2-fluorotetrahydro-1H-pyrrolizin-7a(5H)-yl)methoxy-d2)pyrido[4,3-d]pyrimidin-7-yl)-5-ethynyl-6,7-difluoronaphthalen-2-amine]	50 to 500 nM
[2H]C([2H])(Oc1nc(N2CCO[C@H]3C[C@H]32)c2cnc(-c3cc(N)cc4cc(F)c(F)c(C#C)c34)c(F)c2n1)[C@@]12CCCN1C[C@H](F)C2 [Example 32, 4-(4-((1S,6R)-2-Oxa-5-azabicyclo[4.1.0]heptan-5-yl)-8-fluoro-2-(((2R,7aS)-2-fluorotetrahydro-1H-pyrrolizin-7a(5H)-yl)methoxy-d2)pyrido[4,3-d]pyrimidin-7-yl)-5-ethynyl-6,7-difluoronaphthalen-2-amine]	50 to 500 nM
[2H]C([2H])(Oc1nc(N2CCCO[C@@H]3C[C@@H]32)c2c(OC)nc(-c3cc(N)cc4cc(F)c(F)c(C#C)c34)c(F)c2n1)[C@@]12CCCN1C[C@H](F)C2 [Example 33, 4-(4-((1R,7S)-2-Oxa-6-azabicyclo[5.1.0]octan-6-yl)-8-fluoro-2-(((2R,7aS)-2-fluorotetrahydro-1H-pyrrolizin-7a(5H)-yl)methoxy-d2)-5-methoxypyrido[4,3-d]pyrimidin-7-yl)-5-ethynyl-6,7-difluoronaphthalen-2-amine]	50 to 500 nM
[2H]C([2H])(Oc1nc(N2CCCO[C@H]3C[C@H]32)c2c(OC)nc(-c3cc(N)cc4cc(F)c(F)c(C#C)c34)c(F)c2n1)[C@@]12CCCN1C[C@H](F)C2 [Example 34, 4-(4-((1S,7R)-2-Oxa-6-azabicyclo[5.1.0]octan-6-yl)-8-fluoro-2-(((2R,7aS)-2-fluorotetrahydro-1H-pyrrolizin-7a(5H)-yl)methoxy-d2)-5-methoxypyrido[4,3-d]pyrimidin-7-yl)-5-ethynyl-6,7-difluoronaphthalen-2-amine]	< 50 nM
[2H]C([2H])(Oc1nc(N2CCCO[C@@H]3C[C@@H]32)c2c(OC)nc(-c3cc(O)cc4ccc(F)c(C#C)c34)c(F)c2n1)[C@@]12CCCN1C[C@H](F)C2 [Example 35, 4-(4-((1R,7S)-2-Oxa-6-azabicyclo[5.1.0]octan-6-yl)-8-fluoro-2-(((2R,7aS)-2-fluorotetrahydro-1H-pyrrolizin-7a(5H)-yl)methoxy-d2)-5-methoxypyrido[4,3-d]pyrimidin-7-yl)-5-ethynyl-6-fluoronaphthalen-2-ol]	50 to 500 nM
[2H]C([2H])(Oc1nc(N2CCCO[C@H]3C[C@H]32)c2c(OC)nc(-c3cc(O)cc4ccc(F)c(C#C)c34)c(F)c2n1)[C@@]12CCCN1C[C@H](F)C2 [Example 36, 4-(4-((1S,7R)-2-Oxa-6-azabicyclo[5.1.0]octan-6-yl)-8-fluoro-2-(((2R,7aS)-2-fluorotetrahydro-1H-pyrrolizin-7a(5H)-yl)methoxy-d2)-5-methoxypyrido[4,3-d]pyrimidin-7-yl)-5-ethynyl-6-fluoronaphthalen-2-ol]	< 50 nM
[2H]C([2H])(Oc1nc(N2CCO[C@@H]3[C@@H](F)[C@@H]32)c2cnc(-c3cc(N)cc4cc(F)c(F)c(C#C)c34)c(F)c2n1)[C@@]12CCCN1C[C@H](F)C2 [Example 37, 5-Ethynyl-6,7-difluoro-4-(8-fluoro-4-((1S,6R,7S)-7-fluoro-2-oxa-5-azabicyclo[4.1.0]heptan-5-yl)-2-(((2R,7aS)-2-fluorotetrahydro-1H-pyrrolizin-7a(5H)-yl)methoxy-d2)pyrido[4,3-d]pyrimidin-7-yl)naphthalen-2-amine]	50 to 500 nM
[2H]C([2H])(Oc1nc(N2CCO[C@H]3[C@H](F)[C@H]32)c2cnc(-c3cc(N)cc4cc(F)c(F)c(C#C)c34)c(F)c2n1)[C@@]12CCCN1C[C@H](F)C2 [Example 38, 5-Ethynyl-6,7-difluoro-4-(8-fluoro-4-((1R,6S,7R)-7-fluoro-2-oxa-5-azabicyclo[4.1.0]heptan-5-yl)-2-(((2R,7aS)-2-fluorotetrahydro-1H-pyrrolizin-7a(5H)-yl)methoxy-d2)pyrido[4,3-d]pyrimidin-7-yl)naphthalen-2-amine]	< 50 nM
[2H]C([2H])(Oc1nc(N2CCCO[C@H]3C[C@H]32)c2cnc(-c3ccc(F)c4sc(N)c(C#N)c34)c(F)c2n1)[C@@]12CCCN1C[C@H](F)C2 [Example 39, 4-(4-((1S,7R)-2-Oxa-6-azabicyclo[5.1.0]octan-6-yl)-8-fluoro-2-(((2R,7aS)-2-fluorotetrahydro-1H-pyrrolizin-7a(5H)-yl)methoxy-d2)pyrido[4,3-d]pyrimidin-7-yl)-2-amino-7-fluorobenzo[b]thiophene-3-carbonitrile]	50 to 500 nM
[2H]C([2H])(Oc1nc(N2CCCO[C@@H]3C[C@@H]32)c2cnc(-c3ccc(F)c4sc(N)c(C#N)c34)c(F)c2n1)[C@@]12CCCN1C[C@H](F)C2 [Example 40, 4-(4-((1R,7S)-2-Oxa-6-azabicyclo[5.1.0]octan-6-yl)-8-fluoro-2-(((2R,7aS)-2-fluorotetrahydro-1H-pyrrolizin-7a(5H)-yl)methoxy-d2)pyrido[4,3-d]pyrimidin-7-yl)-2-amino-7-fluorobenzo[b]thiophene-3-carbonitrile]	500 to 10000 nM
[2H]C([2H])([2H])Oc1c(F)c(F)c(F)c2cc(N)cc(-c3ncc4c(N5CCOC[C@H]6[C@H](F)[C@H]65)nc(OC([2H])([2H])[C@@]56CCCN5C[C@H](F)C6)nc4c3F)c12 [Example 41, 6,7,8-Trifluoro-4-(8-fluoro-4-((1S,7S,8S)-8-fluoro-5-oxa-2-azabicyclo[5.1.0]octan-2-yl)-2-(((2R,7aS)-2-fluorotetrahydro-1H-pyrrolizin-7a(5H)-yl)methoxy-d2)pyrido[4,3-d]pyrimidin-7-yl)-5-(methoxy-d3)naphthalen-2-amine]	< 50 nM
[2H]C([2H])(Oc1nc(N2CCOC[C@H]3[C@H](F)[C@H]32)c2cnc(-c3cccc4cc(F)c(F)c(C#C)c34)c(F)c2n1)[C@@]12CCCN1C[C@H](F)C2 [Example 42, (1S,7S,8S)-2-(7-(8-Ethynyl-6,7-difluoronaphthalen-1-yl)-8-fluoro-2-(((2R,7aS)-2-fluorotetrahydro-1H-pyrrolizin-7a(5H)-yl)methoxy-d2)pyrido[4,3-d]pyrimidin-4-yl)-8-fluoro-5-oxa-2-azabicyclo[5.1.0]octane]	< 50 nM
